{
  "source": "patent US20100004159A1",
  "about": "“SUBSTITUTED IMIDAZOLONE DERIVATIVES, PREPARATIONS AND USES” (GENFIT, priority 2006, published 2010)",
  "key": {"PPARs target genes": {"system": "PPARs target genes", "assay": "Expression of PPAR target genes by quantitative RT-PCR in db/db mouse tissue", "format": "in vivo", "conditions": "db/db mice, 50 mpk for 28 days", "description": "Samples of hepatic tissue and adipose epididymal tissue were taken and frozen immediately in liquid nitrogen then conserved at −80° C. for later analysis.\nTotal RNA was extracted from liver fragments by using a NucleoSpine 96 RNA kit (Macherey Nagel, Hoerdt, France) according to the manufacturer's instructions.\nThe total RNA of the adipose tissue was extracted from tissue fragments with a method using guanidine thiocyanate. The tissues were briefly homogenized in 5 mL of a lysis buffer (guanidine thiocyanate 4M, EDTA pH8 10 mM, Tris HCl pH 7.5 50 mM and b-mercaptoethanol 1.4%) using polytron. To separate the layers, 500 μL of sodium acetate 2M pH4, 5 mL of phenol, and 2 mL of a mixture of chloroform/isoamylic alcohol (49:1) were added. After centrifugation, the aqueous layer was collected and the RNA was precipitated in the presence of isopropanol. After a second precipitation, the RNA was washed with ethanol 70°, dried, then suspended again in an volume of water free of RNase. A step of purification/DNase I treatment of the RNA was then carried out by using NucleoSpin® 96 RNA kit (Macherey-Nagel) according to the manufacturer's instructions. 1 μg of total RNA (quantified by using the Ribogreen RNA quantification kit (Molecular Probes)) was then reverse-transcribed into cDNA by means of a 1 hour reaction at 37° C. in a total volume of 20 μl containing a buffer 1× (Sigma), 1.5 mM of DTT, 0.18 mM, of dNTPs (Promega), 200 ng of pdN6 (Amersham), 30 U of RNase inhibitor (Sigma), and 1 μl of MMLV-RT (Sigma). The quantitative PCR experiments were carried out using the MyiQ Single-Color Real-Time PCR Detection System (Biorad, Marnes-la-Coquette, France) and were performed using the iQ SYBR Green Supermix kit according to the manufacturer's recommendations, in 96-well plates in 5 μl of a diluted reverse transcription solution at a hybridization temperature of 55° C. Primer pairs specific to the studied genes were used:\nThe quantity of emitted fluorescence is directly proportional to the quantity of cDNA present at the beginning of the reaction and amplified during the PCR. For each target studied, a range of solutions is performed with successive dilutions of a mixture made up of a few μl of different reverse-transcription solutions. The relative levels of expression of each target are thus determined by using efficiency curves obtained with the points relative to the range.\nThe expression levels of the genes of interest were then normalized, in the hepatic tissue with respect to the level expression of reference gene 36B4 (whose specific primers are: sense primer: 5′-[…]-3′ (SEQ ID NO: 15) and antisense primer: 5′-[…]-3′ (SEQ ID NO: 16)), and in the adipose tissue with respect to reference gene 18S (whose specific primers are: sense primer: 5′-[…]-3′ (SEQ ID NO: 17) and antisense primer: 5′-[…]-3′ (SEQ ID NO: 18)). The induction factor was then calculated for each sample. The higher the induction factor is, the more the compound promotes gene expression. The final result is represented as the average of the induction values within each experimental group."}, "[1]": {"system": "Wistar rats under repeated administrations of angiotensin II", "assay": "Arterial pressure of Wistar rats under repeated administration of angiotensin II", "format": "in vivo, rat", "conditions": "angiotensin II boluses 50, 100 and 200 ng/kg; single intravenous dose 20 mpk", "description": "This experimental procedure is intended to show the anti-hypertensive effects of the compounds according to the invention in Wistar rats in which hypertension is induced either by continuous intravenous administration of angiotensin II (example 21.1) or by repeated intravenous administration of angiotensin II (example 21.2). The animals were treated with the compounds according to the invention intravenously at increasing doses. To validate the study, the control animals were administered, in the same conditions, either the vehicle itself or a reference.\nWistar rats (males—200-250 g—5-6 weeks old—CERJ) were anesthetized for surgery using pentobarbital (50 mg/kg). A catheter was placed in the right jugular vein for angiotensin II administration. A catheter was placed in the left jugular vein the administration of the compounds according to the invention. Boluses of angiotensin II were performed at predetermined intervals by the experimenter using a manual syringe.\nThe arterial pressure of the animal was measured for a few minutes at basal conditions; then three successive intravenous administrations of angiotensin II (50, 100, and 200 ng/kg) were performed. At every bolus of angiotensin II, the average arterial pressure, expressed in mm of Hg, increased in a very temporary way. […]"}},
  "data": [
    {"compound": "CCCCC1=NC2(CCCC2)C(=O)N1Cc1ccc(-c2cccc(OC(C)(C)C(=O)O)c2)cc1", "note": "[Compound 1, 2-butyl-1-[(3′-((1-carboxy-1,1-dimethylmethyl)oxy)biphenyl-4-yl)methyl]-4-spirocyclopentyl-1H-imidazol-5(4H)-one]", "values": [
      {"measurement": "hepatic expression of the gene coding for CPT1 b", "setting": "PPARs target genes", "value": "significant increase"},
      {"measurement": "hepatic expression of the gene coding for PDK-4", "setting": "PPARs target genes", "value": "significant increase"},
      {"measurement": "expression of the gene coding for ApoCIII", "setting": "PPARs target genes; liver", "value": "significant decrease"},
      {"measurement": "expression of the gene coding for FBb", "setting": "PPARs target genes; liver", "value": "significant decrease"},
      {"measurement": "difference of arterial pressure: antagonist effect on angiotensin II", "setting": "[1]", "value": "antagonist effect on angiotensin II"}
    ]}
  ]
}
